Experimental data taken from patent publication US8063065B2, “Azaindazole compounds as CCR1 receptor antagonists” (Boehringer Ingelheim International GmbH, priority 2008, dated 2011).

These compounds were tested against T1, CCR1 (Homo sapiens, UniProt P32246) (assay: Method B: calcium flux in CCR1 transfected cells (Calcium 4 dye, […] FDSS6000), block of the CCR1/MIP-1α interaction). Settings: Method B: Calcium 4 dye, MIP-1alpha at EC80.
T1 sequence (P32246 1-355): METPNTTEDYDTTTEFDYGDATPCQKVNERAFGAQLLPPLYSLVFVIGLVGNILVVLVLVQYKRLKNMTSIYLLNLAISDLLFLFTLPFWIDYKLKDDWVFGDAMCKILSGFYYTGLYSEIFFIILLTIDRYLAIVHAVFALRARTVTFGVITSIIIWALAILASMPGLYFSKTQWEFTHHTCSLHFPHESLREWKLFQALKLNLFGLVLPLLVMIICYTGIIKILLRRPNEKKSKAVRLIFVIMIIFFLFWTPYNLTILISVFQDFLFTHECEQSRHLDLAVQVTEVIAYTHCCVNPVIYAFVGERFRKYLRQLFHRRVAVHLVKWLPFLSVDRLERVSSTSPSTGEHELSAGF
Format: cell-based
Outline: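 Calcium flux on an FDSS6000 was triggered by MIP-1α at its EC80 in stably CCR1/G-alpha-16-expressing non-adherent cells. Before this, Calcium 4-loaded cells were preincubated with compound in HBSS, 20 mM HEPES pH 7.4, 1% DMSO: 30 min at 37 C plus 30 min at room temperature. Ten 4-fold doses began at 3,000 nM, with ±MIP-1α DMSO wells as controls.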
Compound `CC[C@H](NC(=O)c1cncc2c1cnn2-c1ccc(F)cc1)c1cccc(S(N)(=O)=O)n1` [1-(4-Fluorophenyl)-1H-pyrazolo[3,4-c]pyridine-4-carboxylic acid [(S)-1-(6-sulfamoyl-pyridin-2-yl)-propyl]-amide] has an IC50 of 0.3 nM.
`CC[C@H](NC(=O)c1cncc2c1cnn2-c1ccc(F)cc1)[C@@H]1CCN(S(C)(=O)=O)[C@@H](C(N)=O)C1` [1-(4-Fluorophenyl)-1H-pyrazolo[3,4-c]pyridine-4-carboxylic acid [(S)-1-((2R,4R)-2-carbamoyl-1-methanesulfonyl-piperidin-4-yl)-propyl]-amide] gave an IC50 of 10 nM.
With `CC[C@H](NC(=O)c1cncc2c1cnn2-c1ccc(F)cc1)[C@@H]1CCN(S(C)(=O)=O)[C@H](C(N)=O)C1` [1-(4-Fluorophenyl)-1H-pyrazolo[3,4-c]pyridine-4-carboxylic acid [(S)-1-((2S,4R)-2-carbamoyl-1-methanesulfonyl-piperidin-4-yl)-propyl]-amide] the IC50 was 12 nM.
`CS(=O)(=O)c1cc([C@H](CCO)NC(=O)c2cncc3c2cnn3-c2ccc(F)cc2)ccn1` [1-(4-Fluorophenyl)-1H-pyrazolo[3,4-c]pyridine-4-carboxylic acid [(S)-3-hydroxy-1-(2-methanesulfonyl-pyridin-4-yl)-propyl]-amide] was tested, and the IC50 was 12 nM.
With `CCC(NC(=O)c1cncc2c1cnn2-c1ccc(F)cc1)c1cnc(N(C)S(C)(=O)=O)nc1` (centres unmarked) [1-(4-Fluorophenyl)-1H-pyrazolo[3,4-c]pyridine-4-carboxylic acid {1-[2-(methanesulfonyl-methyl-amino)-pyrimidin-5-yl]-propyl}-amide] the IC50 was 7 nM.
`CCC(NC(=O)c1cncc2c1cnn2-c1ccc(F)cc1)c1nc(C(=O)NCC(N)=O)c(C)o1` (centres unmarked) [1-(4-Fluorophenyl)-1H-pyrazolo[3,4-c]pyridine-4-carboxylic acid {1-[4-(carbamoylmethyl-carbamoyl)-5-methyl-oxazol-2-yl]-propyl}-amide] gave an IC50 of 25 nM.
`CCC(NC(=O)c1cncc2c1cnn2-c1ccc(F)cc1)c1nc(C(=O)NCC#N)c(C)o1` (centres unmarked) [1-(4-Fluorophenyl)-1H-pyrazolo[3,4-c]pyridine-4-carboxylic acid {1-[4-(cyanomethyl-carbamoyl)-5-methyl-oxazol-2-yl]-propyl}-amide] showed an IC50 of 18 nM.
For `CCC(NC(=O)c1cncc2c1cnn2-c1ccc(F)cc1)c1nc(C(=O)NCC#N)co1` (centres unmarked) [1-(4-Fluorophenyl)-1H-pyrazolo[3,4-c]pyridine-4-carboxylic acid {1-[4-(cyanomethyl-carbamoyl)-oxazol-2-yl]-propyl}-amide], the IC50 was 25 nM.
With `CC[C@@H](NC(=O)c1cncc2c1cnn2-c1ccc(F)cc1)c1ccn(S(=O)(=O)c2ccc(C)cc2)c1` [1-(4-Fluorophenyl)-1H-pyrazolo[3,4-c]pyridine-4-carboxylic acid {(R)-1-[1-(toluene-4-sulfonyl)-1H-pyrrol-3-yl]-propyl}-amide] the IC50 was 23 nM.
For `CC[C@@H](NC(=O)c1cncc2c1cnn2-c1ccc(F)cc1)c1cc(S(C)(=O)=O)cn1S(=O)(=O)c1ccc(C)cc1` [1-(4-Fluorophenyl)-1H-pyrazolo[3,4-c]pyridine-4-carboxylic acid {(R)-1-[4-methanesulfonyl-1-(toluene-4-sulfonyl)-1H-pyrrol-2-yl]-propyl}-amide], the IC50 was 16 nM.
Work on `CC[C@H](NC(=O)c1cncc2c1cnn2-c1ccc(F)cc1)c1ccn(S(=O)(=O)c2ccc(C)cc2)c1` [1-(4-Fluorophenyl)-1H-pyrazolo[3,4-c]pyridine-4-carboxylic acid {(S)-1-[1-(toluene-4-sulfonyl)-1H-pyrrol-3-yl]-propyl}-amide] yielded an IC50 of 3 nM.
`CC[C@H](NC(=O)c1cncc2c1cnn2-c1ccc(F)cc1)c1ccnc(N2CCS(=O)(=O)CC2)c1` [1-(4-Fluorophenyl)-1H-pyrazolo[3,4-c]pyridine-4-carboxylic acid {(S)-1-[2-(1,1-dioxo-1λ6-thiomorpholin-4-yl)-pyridin-4-yl]-propyl}-amide] was tested, and the IC50 was 12 nM.
Compound `CC[C@H](NC(=O)c1cncc2c1cnn2-c1ccc(F)cc1)c1ccnc(C(C)(C)O)c1` [1-(4-Fluorophenyl)-1H-pyrazolo[3,4-c]pyridine-4-carboxylic acid {(S)-1-[2-(1-hydroxy-1-methyl-ethyl)-pyridin-4-yl]-propyl}-amide] has an IC50 of 0.5 nM.
Work on `CC[C@H](NC(=O)c1cncc2c1cnn2-c1ccc(F)cc1)c1ccnc(-c2nnn[nH]2)c1` [1-(4-Fluorophenyl)-1H-pyrazolo[3,4-c]pyridine-4-carboxylic acid {(S)-1-[2-(1H-tetrazol-5-yl)-pyridin-4-yl]-propyl}-amide] yielded an IC50 of 3 nM.
In the case of `C[C@H](NC(=O)c1cncc2c1cnn2-c1ccc(F)cc1)c1ccnc(S(=O)(=O)CCCO)c1` [1-(4-Fluorophenyl)-1H-pyrazolo[3,4-c]pyridine-4-carboxylic acid {(S)-1-[2-(3-hydroxy-propane-1-sulfonyl)-pyridin-4-yl]-ethyl}-amide], the IC50 is reported as 38 nM.
With `CC[C@H](NC(=O)c1cncc2c1cnn2-c1ccc(F)cc1)c1ccnc(N2CCN(C(C)=O)CC2)c1` [1-(4-Fluorophenyl)-1H-pyrazolo[3,4-c]pyridine-4-carboxylic acid {(S)-1-[2-(4-acetyl-piperazin-1-yl)-pyridin-4-yl]-propyl}-amide] the IC50 was 5 nM.
Work on `CC[C@H](NC(=O)c1cncc2c1cnn2-c1ccc(F)cc1)c1ccnc(N2CCN(C)CC2)c1` [1-(4-Fluorophenyl)-1H-pyrazolo[3,4-c]pyridine-4-carboxylic acid {(S)-1-[2-(4-methyl-piperazin-1-yl)-pyridin-4-yl]-propyl}-amide] yielded an IC50 of 8 nM.
Compound `CC[C@H](NC(=O)c1cncc2c1cnn2-c1ccc(F)cc1)c1ccnc([S@@+](C)[O-])c1` [1-(4-Fluorophenyl)-1H-pyrazolo[3,4-c]pyridine-4-carboxylic acid {(S)-1-[2-((R)-methanesulfinyl)-pyridin-4-yl]-propyl}-amide] has an IC50 of 0.6 nM.
`CC[C@H](NC(=O)c1cncc2c1cnn2-c1ccc(F)cc1)c1ccnc([S@+](C)[O-])c1` [1-(4-Fluorophenyl)-1H-pyrazolo[3,4-c]pyridine-4-carboxylic acid {(S)-1-[2-((S)-methanesulfinyl)-pyridin-4-yl]-propyl}-amide] showed an IC50 of 0.5 nM.
`CC[C@H](NC(=O)c1cncc2c1cnn2-c1ccc(F)cc1)c1ccnc(N(C)C(C)=O)c1` [1-(4-Fluorophenyl)-1H-pyrazolo[3,4-c]pyridine-4-carboxylic acid {(S)-1-[2-(acetyl-methyl-amino)-pyridin-4-yl]-propyl}-amide] gave an IC50 of 5 nM.
With `C[C@H](NC(=O)c1cncc2c1cnn2-c1ccc(F)cc1)c1cc(NCC(N)=O)nc(S(C)(=O)=O)c1` [1-(4-Fluorophenyl)-1H-pyrazolo[3,4-c]pyridine-4-carboxylic acid {(S)-1-[2-(carbamoylmethyl-amino)-6-methanesulfonyl-pyridin-4-yl]-ethyl}-amide] the IC50 was 0.6 nM.
`CC[C@H](NC(=O)c1cncc2c1cnn2-c1ccc(F)cc1)c1cc(NCC(N)=O)nc(S(C)(=O)=O)c1` [1-(4-Fluorophenyl)-1H-pyrazolo[3,4-c]pyridine-4-carboxylic acid {(S)-1-[2-(carbamoylmethyl-amino)-6-methanesulfonyl-pyridin-4-yl]-propyl}-amide] gave an IC50 of 0.4 nM.
With `C[C@H](NC(=O)c1cncc2c1cnn2-c1ccc(F)cc1)c1cc(N(C)CC(N)=O)nc(S(C)(=O)=O)c1` [1-(4-Fluorophenyl)-1H-pyrazolo[3,4-c]pyridine-4-carboxylic acid {(S)-1-[2-(carbamoylmethyl-methyl-amino)-6-methanesulfonyl-pyridin-4-yl]-ethyl}-amide] the IC50 was 1 nM.
`CC[C@H](NC(=O)c1cncc2c1cnn2-c1ccc(F)cc1)c1cc(N(C)CC(N)=O)nc(S(C)(=O)=O)c1` [1-(4-Fluorophenyl)-1H-pyrazolo[3,4-c]pyridine-4-carboxylic acid {(S)-1-[2-(carbamoylmethyl-methyl-amino)-6-methanesulfonyl-pyridin-4-yl]-propyl}-amide] showed an IC50 of 0.3 nM.
`CC[C@H](NC(=O)c1cncc2c1cnn2-c1ccc(F)cc1)c1ccnc(N(C)C2CCNCC2)c1` [1-(4-Fluorophenyl)-1H-pyrazolo[3,4-c]pyridine-4-carboxylic acid {(S)-1-[2-(methyl-piperidin-4-yl-amino)-pyridin-4-yl]-propyl}-amide] showed an IC50 of 11 nM.
With `CC[C@H](NC(=O)c1nccc2c1cnn2-c1ccc(F)cc1)c1ccnc(S(C)(=O)=O)c1` [1-(4-Fluorophenyl)-1H-pyrazolo[4,3-c]pyridine-4-carboxylic acid [(S)-1-(2-methanesulfonyl-pyridin-4-yl)-propyl]-amide] the IC50 was 3 nM.
`CCC(NC(=O)c1cncc2c1cnn2-c1ccc(F)cc1)c1nc(C(=O)OC)c(C)o1` (centres unmarked) [2-(1-{[1-(4-Fluorophenyl)-1H-pyrazolo[3,4-c]pyridine-4-carbonyl]-amino}-propyl)-5-methyl-oxazole-4-carboxylic acid methyl ester] showed an IC50 of 27 nM.
Work on `CC[C@H](NC(=O)c1cncc2c1cnn2-c1ccc(F)cc1)c1nc(C(=O)OC)co1` [2-((S)-1-{[1-(4-Fluorophenyl)-1H-pyrazolo[3,4-c]pyridine-4-carbonyl]-amino}-propyl)-oxazole-4-carboxylic acid methyl ester] yielded an IC50 of 38 nM.
`CC[C@H](NC(=O)c1cncc2c1cnn2-c1ccc(F)cc1)c1nc(C(=O)OC)cs1` [2-((S)-1-{[1-(4-Fluorophenyl)-1H-pyrazolo[3,4-c]pyridine-4-carbonyl]-amino}-propyl)-thiazole-4-carboxylic acid methyl ester] was tested, and the IC50 was 5 nM.
